Results from patent publication US10556888B2, “Pyrazole compounds or salts thereof, preparation methods therefor, herbicidal compositions and use thereof” (QINGDAO KINGAGROOT CHEMICAL COMPOUNDS CO., LTD, priority 2015, dated 2020).

Key:
Assay type in all cases: in vivo
[1] = test system: Echinochloa crus-galli; assay: Control experiment, test in post-emergence stage; parameters: key: Level 10: completely dead; Level 9: above 90% growth inhibition rate; Level 8: above 80% growth inhibition rate; Level 7: above 70% growth inhibition rate; Level 6: above 60% growth inhibition rate; Level 5: above 50% growth inhibition rate; Level 4: above 30% growth inhibition rate; Level 3: above 20% growth inhibition rate; Level 2: above 10% growth inhibition rate; Level 1: above 1-10% growth inhibition rate; Level 0: no effect; details: 5-6 leaf stage, 15 g/ha, observe time 25 day
Method: (§1) Test in post-emergence stage: seeds of monocotyledonous weeds and corn were put into a plastic pot loaded with soil, covered with 0.5-2 cm soil, and allowed to grow in good greenhouse environment. The test plants were treated at 5-6 leaf stage 4 weeks after sowing. The test compounds of the present invention were dissolved with acetone respectively, then added with tween 80, diluted by a certain amount of water to reach a certain concentration. The solution was sprayed to the plants by a spray tower. The test application rate was 15 g/ha and the observe time was 25 day.

[2] = test system: Digitaria sanguinalis; assay: Control experiment, test in post-emergence stage; parameters: key: Level 10: completely dead; Level 9: above 90% growth inhibition rate; Level 8: above 80% growth inhibition rate; Level 7: above 70% growth inhibition rate; Level 6: above 60% growth inhibition rate; Level 5: above 50% growth inhibition rate; Level 4: above 30% growth inhibition rate; Level 3: above 20% growth inhibition rate; Level 2: above 10% growth inhibition rate; Level 1: above 1-10% growth inhibition rate; Level 0: no effect; details: 5-6 leaf stage, 15 g/ha, observe time 25 day
Method: as §1

[3] = test system: Setaria viridis; assay: Control experiment, test in post-emergence stage; parameters: key: Level 10: completely dead; Level 9: above 90% growth inhibition rate; Level 8: above 80% growth inhibition rate; Level 7: above 70% growth inhibition rate; Level 6: above 60% growth inhibition rate; Level 5: above 50% growth inhibition rate; Level 4: above 30% growth inhibition rate; Level 3: above 20% growth inhibition rate; Level 2: above 10% growth inhibition rate; Level 1: above 1-10% growth inhibition rate; Level 0: no effect; details: 5-6 leaf stage, 15 g/ha, observe time 25 day
Method: as §1

[4] = test system: Corn; assay: Control experiment, test in post-emergence stage, crop safety; parameters: key: Level 10: completely dead; Level 9: above 90% growth inhibition rate; Level 8: above 80% growth inhibition rate; Level 7: above 70% growth inhibition rate; Level 6: above 60% growth inhibition rate; Level 5: above 50% growth inhibition rate; Level 4: above 30% growth inhibition rate; Level 3: above 20% growth inhibition rate; Level 2: above 10% growth inhibition rate; Level 1: above 1-10% growth inhibition rate; Level 0: no effect; details: 5-6 leaf stage, 15 g/ha, observe time 25 day
Method: as §1

[5] = test system: main crop (wheat, corn, rice, soybean, cotton, oilseed, millet and sorghum); assay: Post-emergence test experiment, main crops (Table 2); parameters: key: Level 10: completely dead; Level 9: above 90% growth inhibition rate; Level 8: above 80% growth inhibition rate; Level 7: above 70% growth inhibition rate; Level 6: above 60% growth inhibition rate; Level 5: above 50% growth inhibition rate; Level 4: above 30% growth inhibition rate; Level 3: above 20% growth inhibition rate; Level 2: above 10% growth inhibition rate; Level 1: above 1-10% growth inhibition rate; Level 0: no effect; details: 3 weeks after spraying, greenhouse
Summary of the method: (§2)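 Weed and crop seeds (wheat, corn, rice, soybean, cotton, oilseed, millet, sorghum) grown in soil in greenhouse; sprayed at 2-3 leaf stage, 2-3 weeks after sowing, with compound in acetone/Tween 80/water. Effects assessed after 3 weeks further greenhouse culture.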

[6] = test system: Monocotyledonous and dicotyledonous weed; assay: Post-emergence test experiment, weed control effect (Table 2); parameters: key to weed control effect, Setaria viridis (level) / weed control effect, Rorippa indica (level) / weed control effect, Abutilon theophrasti (level) / weed control effect, Echinochloa crus-galli (level) / weed control effect, Digitaria sanguinalis (level): Level 10: completely dead; Level 9: above 90% growth inhibition rate; Level 8: above 80% growth inhibition rate; Level 7: above 70% growth inhibition rate; Level 6: above 60% growth inhibition rate; Level 5: above 50% growth inhibition rate; Level 4: above 30% growth inhibition rate; Level 3: above 20% growth inhibition rate; Level 2: above 10% growth inhibition rate; Level 1: above 1-10% growth inhibition rate; Level 0: no effect; details: 3 weeks after spraying, greenhouse
Summary of the method: as §2

[7] = test system: Echinochloa crus-galli; assay: Weed control effect evaluation in transplanted rice field; parameters: key: Level 10: completely dead; Level 9: above 90% growth inhibition rate; Level 8: above 80% growth inhibition rate; Level 7: above 70% growth inhibition rate; Level 6: above 60% growth inhibition rate; Level 5: above 50% growth inhibition rate; Level 4: above 30% growth inhibition rate; Level 3: above 20% growth inhibition rate; Level 2: above 10% growth inhibition rate; Level 1: above 1-10% growth inhibition rate; Level 0: no effect; details: transplanted rice field pot test, application rate 60 g/ha, 14 days after treatment
Method: (§3) Rice field soil was loaded into a 1/1,000,000 ha pot. The seeds of Echinochloa, Scirpus juncoides, Bidens tripartite and Sagittaria trifolia were sowed and gently covered with soil, then left to stand still in greenhouse in the state of 0.5-1 cm of water storage. The tuber of Sagittaria trifolia was planted in the next day or 2 days later. It was kept at 3-4 cm of water storage thereafter. The weeds were treated by dripping the WP or SC water diluents prepared according to the common preparation method of the compounds of the present invention with pipette homogeneously to achieve specified effective amount when Echinochloa, Scirpus juncoides and Bidens tripartite reached 0.5 leaf stage and Sagittaria trifolia reached the time point of primary leaf stage.
(§4) The fertility condition of Echinochloa, Scirpus juncoides, Bidens tripartite and Sagittaria trifolia 14 days after the treatment of the compound of the invention and the fertility condition of rice 21 days after the treatment of the compound of the invention respectively with the naked eye.
(§5) The seeds of Echinochloa crus-galli, Scirpus juncoides and Monochoria vaginalis were collected from Heilongjing and Jiangsu Province of China.

[8] = test system: Monochoria vaginalis; assay: as above; parameters: key: Level 10: completely dead; Level 9: above 90% growth inhibition rate; Level 8: above 80% growth inhibition rate; Level 7: above 70% growth inhibition rate; Level 6: above 60% growth inhibition rate; Level 5: above 50% growth inhibition rate; Level 4: above 30% growth inhibition rate; Level 3: above 20% growth inhibition rate; Level 2: above 10% growth inhibition rate; Level 1: above 1-10% growth inhibition rate; Level 0: no effect; details: transplanted rice field pot test, application rate 60 g/ha, 14 days after treatment
Method: as §3, §4, §5

[9] = test system: Scirpus juncoides; assay: as above; parameters: key: Level 10: completely dead; Level 9: above 90% growth inhibition rate; Level 8: above 80% growth inhibition rate; Level 7: above 70% growth inhibition rate; Level 6: above 60% growth inhibition rate; Level 5: above 50% growth inhibition rate; Level 4: above 30% growth inhibition rate; Level 3: above 20% growth inhibition rate; Level 2: above 10% growth inhibition rate; Level 1: above 1-10% growth inhibition rate; Level 0: no effect; details: transplanted rice field pot test, application rate 60 g/ha, 14 days after treatment
Method: as §3, §4, §5

[10] = test system: Rice; assay: Transplanted rice safety evaluation; parameters: key: Level 10: completely dead; Level 9: above 90% growth inhibition rate; Level 8: above 80% growth inhibition rate; Level 7: above 70% growth inhibition rate; Level 6: above 60% growth inhibition rate; Level 5: above 50% growth inhibition rate; Level 4: above 30% growth inhibition rate; Level 3: above 20% growth inhibition rate; Level 2: above 10% growth inhibition rate; Level 1: above 1-10% growth inhibition rate; Level 0: no effect; details: transplanted 3 leaf stage japonica rice, application rate 60 g/ha, 21 days after treatment
Method: In addition, the rice field soil that loaded into the 1/1,000,000 ha pot was leveled to keep water storage at 3-4 cm depth. The 3 leaf stage rice (japonica rice) was transplanted at 3 cm of transplanting depth the next day. The compound of the present invention was treated by the same way after 5 days of transplantation. The fertility condition of Echinochloa, Scirpus juncoides, Bidens tripartite and Sagittaria trifolia 14 days after the treatment of the compound of the invention and the fertility condition of rice 21 days after the treatment of the compound of the invention respectively with the naked eye.

Compound | Echinochloa crus-galli (activity level) [1] | Digitaria sanguinalis (activity level) [2] | Setaria viridis (activity level) [3] | Corn (safety, activity level) [4] | effect on crop, corn (level) ([5]; 30 g/ha) | effect on crop, rice (level) ([5]; 30 g/ha) | effect on crop, wheat (level) ([5]; 30 g/ha) | weed control effect, Abutilon theophrasti (level) ([6]; 30 g/ha) | weed control effect, Bidens pilosa (level) ([6]; 30 g/ha) | weed control effect, Digitaria sanguinalis (level) ([6]; 30 g/ha) | weed control effect, Echinochloa crus-galli (level) ([6]; 30 g/ha) | weed control effect, Rorippa indica (level) ([6]; 30 g/ha) | weed control effect, Setaria viridis (level) ([6]; 30 g/ha) | Weed control effect, Echinochloa crus-galli (activity level) [7] | Weed control effect, Monochoria vaginalis (activity level) [8] | Weed control effect, Scirpus juncoides (activity level) [9] | Rice (safety, activity level) [10] | other results
COCc1c(S(C)(=O)=O)ccc(C(=O)c2c(C)nn(C)c2O)c1Cl [A, reference compound] | 7 (Level 7: above 70% growth inhibition rate) | 6 (Level 6: above 60% growth inhibition rate) | 7 (Level 7: above 70% growth inhibition rate) | 1 (Level 1: above 1-10% growth inhibition rate) |  |  |  |  |  |  |  |  |  |  |  |  |  | 
Cc1nn(C)c(O)c1C(=O)c1ccc(S(C)(=O)=O)c(COCC(F)(F)F)c1Cl [B, reference compound] | 6 (Level 6: above 60% growth inhibition rate) | 5 (Level 5: above 50% growth inhibition rate) | 7 (Level 7: above 70% growth inhibition rate) | 0 |  |  |  |  |  |  |  |  |  |  |  |  |  | 
COCc1c(S(C)(=O)=O)ccc(C(=O)c2c(C)nn(C)c2OC(=O)c2cn(C)nc2C)c1Cl [Compound 26] | 10 | 10 | 10 | 0 | 1 (Level 1: above 1-10% growth inhibition rate) | 5 (Level 5: above 50% growth inhibition rate) | 0 | 7 (Level 7: above 70% growth inhibition rate) | 8 (Level 8: above 80% growth inhibition rate) | 10 | 10 | 8 (Level 8: above 80% growth inhibition rate) | 10 |  |  |  |  | 
C#CCOCc1c(S(C)(=O)=O)ccc(C(=O)c2c(C)nn(C)c2OC(=O)c2cn(C)nc2C)c1C [Compound 76] |  |  |  |  | 1 (Level 1: above 1-10% growth inhibition rate) | 3 (Level 3: above 20% growth inhibition rate) | 0 | 7 (Level 7: above 70% growth inhibition rate) | 7 (Level 7: above 70% growth inhibition rate) | 7 (Level 7: above 70% growth inhibition rate) | 10 | 10 | 10 | 10 | 10 | 10 | 0 | 
CCn1nc(C2CC2)c(C(=O)c2ccc(S(C)(=O)=O)c(COCC(F)F)c2Cl)c1OC(=O)c1cn(C)nc1C [Compound 90] |  |  |  |  | 1 (Level 1: above 1-10% growth inhibition rate) | 3 (Level 3: above 20% growth inhibition rate) | 0 | 7 (Level 7: above 70% growth inhibition rate) | 7 (Level 7: above 70% growth inhibition rate) | 10 | 10 | 10 | 10 | 10 | 10 | 10 | 0 | 
C#CCOCc1c(S(C)(=O)=O)ccc(C(=O)c2cnn(C(C)C)c2OC(=O)c2cn(C)nc2C)c1Cl [Compound 100] |  |  |  |  | 1 (Level 1: above 1-10% growth inhibition rate) | 5 (Level 5: above 50% growth inhibition rate) | 0 | 7 (Level 7: above 70% growth inhibition rate) | 7 (Level 7: above 70% growth inhibition rate) | 7 (Level 7: above 70% growth inhibition rate) | 10 | 10 | 10 | 10 | 8 (Level 8: above 80% growth inhibition rate) | 10 | 0 | 
C#CCOCc1c(S(C)(=O)=O)ccc(C(=O)c2c(CC)nn(CC)c2OC(=O)c2c(Cl)c(CC)nn2C)c1Cl [Compound 107] |  |  |  |  |  |  |  |  |  |  |  |  |  | 9 (Level 9: above 90% growth inhibition rate) | 10 | 10 | 10 | effect on crop, corn (level) ([5]; 60 g/ha): 0; effect on crop, rice (level) ([5]; 60 g/ha): 7 (Level 7: above 70% growth inhibition rate); effect on crop, wheat (level) ([5]; 60 g/ha): 0; weed control effect, Abutilon theophrasti (level) ([6]; 60 g/ha): 10; weed control effect, Bidens pilosa (level) ([6]; 60 g/ha): 8 (Level 8: above 80% growth inhibition rate); weed control effect, Digitaria sanguinalis (level) ([6]; 60 g/ha): 8 (Level 8: above 80% growth inhibition rate); weed control effect, Echinochloa crus-galli (level) ([6]; 60 g/ha): 10; weed control effect, Rorippa indica (level) ([6]; 60 g/ha): 10; weed control effect, Setaria viridis (level) ([6]; 60 g/ha): 10
